Reference: US9518038B2, “Condensation product of theanine derivative and carboxylic acid coumarin derivative, its intermediate, preparation method and use thereof” (SHANDONG YINGDONG YINGHAO BIOTECHNOLOGY, INC., priority 2012, dated 2016)
Where two headings read alike, the source gives them in different places.

What was measured:
[1] = test system: highly metastatic Lewis lung cancer cell lines; assay: MTT growth inhibition, LLC cells; type: cell-based, mouse; conditions: Mus musculus, Lewis lung carcinoma, 72 h after treatment, read-out: Drug concentration (IC50) at which 50% cancer cells survived
Excerpt: (§1) Cell lines and cell culture: human lung cancer cells A549 and H460, human breast cancer cells MCF-7 and MDA-MB-231, human gastric cancer cells BGC-823, human prostate cancer cells PC-3, human chronic leukemia cells K562, human lymphoma cells U937, human liver cancer cells SMMC7721 and HepG2, human colon cancer cells HT29, human pancreatic cancer cells PANC-1 and BxPC3, human cervical cancer Hela cell lines, human brain tumor cells Daoy, human neuroma cells D54 and human oral epidermoid cancer cells KBV200 line with strong drug resistance, mouse melanoma cells B16, and highly metastatic Lewis lung cancer cell lines were purchased from American Type Culture Collection of the U.S. These cells were cultured with DMEM and RPMI-1640 culture solutions separately.
(§2) The procedure was as follows:
(§3) (1) 0.25% trypsin was used to digest cancer cells in a logarithmic growth phase to prepare a single-cell suspension, the concentration of cells was adjusted to 5×10^4/mL, and the adjusted suspension was inoculated into a 96-well culture plate with 100 μl per well;
(§4) (2) The culture plate was transferred into a 37° C. incubator with a saturated humidity and 5% of CO2 and cultured for 24 h; the compounds and the intermediates thereof obtained in embodiments 1-7 and the compound as represented by formula (IIIa) or the positive control anti-cancer drug with the concentration of 1-1000 μM/L were added to enable the final concentration to be 0.1-1500 μM/L. Control wells (only added with 200 μl of cell suspension) and drug-free blank control wells (containing the solvent of 0.01% DMSO) were set, each group included 8 wells, and the plate was placed into the 37° C. incubator with saturated humidity and 5% of CO2 for culturing;
(§5) (3) The 96-well plate was taken out at 48 h and 72 h after dosing, the original culture medium was carefully removed by suction, 100 μl of serum-free DMEM culture medium and 10 μl of MTT (5 mg/mL) solution were added in each well. The plate was continuously cultured for another 4 h and then the culture was terminated;
(§6) (4) The supernatant in the wells was carefully removed by suction, each well was added with 150 μl of DMSO and shaked at room temperature for 10-15 min to fully dissolve crystals.
(§7) (5) Colorimetric analysis: the wavelength was selected as 570 nm, the light absorbance (A value) of each well was determined on the microplate reader and the results were recorded; the experiment was repeated for three times;
(§8) (6) the experimental results were calculated according to the following formula: relative survival rate=(A value of each experimental group/A value of cell control group)×100%
(§9) Calculation of median-effect concentration (IC50, namely the drug concentration at which the inhibition rate is 50%, also known as half inhibitory concentration):
(§10) IC50 of the detected component was calculated by using a regression equation.

[2] = test system: human lung cancer cells A549; assay: MTT growth inhibition, A549 cells; type: cell-based; conditions: 72 h after treatment, read-out: Drug concentration (IC50) at which 50% cancer cells survived
Excerpt: as §1, §2, §3, §4, §5, §6, §7, §8, §9, §10

[3] = test system: human liver cancer cells SMMC7721; assay: MTT growth inhibition, SMMC7721 cells; type: cell-based; conditions: SMMC-7721, S-7721 (SMMC7721), 72 h after treatment, read-out: Drug concentration (IC50) at which 50% cancer cells survived
Excerpt: as §1, §2, §3, §4, §5, §6, §7, §8, §9, §10

[4] = test system: human colon cancer cells HT29; assay: MTT growth inhibition, HT29 cells; type: cell-based; conditions: HT-29, 72 h after treatment, read-out: Drug concentration (IC50) at which 50% cancer cells survived
Excerpt: as §1, §2, §3, §4, §5, §6, §7, §8, §9, §10

[5] = test system: human lymphoma cells U937; assay: MTT growth inhibition, U937 cells; type: cell-based; conditions: read-out: Drug concentration (IC50) at which 50% cancer cells survived
Procedure: as §2, §5, §6, §7, §8, §10

[6] = test system: human cervical cancer Hela cell lines; assay: MTT growth inhibition, Hela cells; type: cell-based; conditions: Homo sapiens, 72 h after treatment, read-out: Drug concentration (IC50) at which 50% cancer cells survived
Excerpt: as §1, §2, §3, §4, §5, §6, §7, §8, §9, §10

[7] = test system: human breast cancer cells MDA-MB-231; assay: MTT growth inhibition, MDA-MB-231 cells; type: cell-based; conditions: 72 h after treatment, read-out: Drug concentration (IC50) at which 50% cancer cells survived
Excerpt: as §1, §2, §3, §4, §5, §6, §7, §8, §9, §10

[8] = test system: human pancreatic cancer cells PANC-1; assay: MTT growth inhibition, PANC-1 cells; type: cell-based; conditions: 72 h after treatment, read-out: Drug concentration (IC50) at which 50% cancer cells survived
Excerpt: as §1, §2, §3, §4, §5, §6, §7, §8, §9, §10

[9] = test system: human prostate cancer cells PC-3; assay: MTT growth inhibition, PC-3 cells; type: cell-based; conditions: 72 h after treatment, read-out: Drug concentration (IC50) at which 50% cancer cells survived
Excerpt: as §1, §2, §3, §4, §5, §6, §7, §8, §9, §10

[10] = test system: human lung cancer cells H460; assay: MTT growth inhibition, H460 cells; type: cell-based; conditions: NCI-H460, 72 h after treatment, read-out: Drug concentration (IC50) at which 50% cancer cells survived
Excerpt: as §1, §2, §3, §4, §5, §6, §7, §8, §9, §10

[11] = test system: human chronic leukemia cells K562; assay: MTT growth inhibition, K562 cells; type: cell-based; conditions: 72 h after treatment, read-out: Drug concentration (IC50) at which 50% cancer cells survived
Excerpt: as §1, §2, §3, §4, §5, §6, §7, §8, §9, §10

mouse melanoma cells B16 = assay: MTT growth inhibition, B16 cells; type: cell-based; conditions: Mus musculus, 72 h after treatment, read-out: Drug concentration (IC50) at which 50% cancer cells survived
Excerpt: as §1, §2, §3, §4, §5, §6, §7, §8, §9, §10

[12] = test system: human breast cancer cells MCF-7; assay: MTT growth inhibition, MCF-7 cells; type: cell-based; conditions: MCF7, 72 h after treatment, read-out: Drug concentration (IC50) at which 50% cancer cells survived
Excerpt: as §1, §2, §3, §4, §5, §6, §7, §8, §9, §10

[13] = test system: human gastric cancer cells BGC-823; assay: MTT growth inhibition, BGC-823 cells; type: cell-based; conditions: 72 h after treatment, read-out: Drug concentration (IC50) at which 50% cancer cells survived
Excerpt: as §1, §2, §3, §4, §5, §6, §7, §8, §9, §10

[14] = test system: human oral epidermoid cancer cells KBV200; assay: MTT growth inhibition, KBV200 cells; type: cell-based; conditions: 72 h after treatment, read-out: Drug concentration (IC50) at which 50% cancer cells survived
Excerpt: as §1, §2, §3, §4, §5, §6, §7, §8, §9, §10

[15] = test system: Caski human cervical cancer cells; assay: MTT growth inhibition, Caski cells; type: cell-based; conditions: Ca-Ski, 72 h after treatment, read-out: Drug concentration (IC50) at which 50% cancer cells survived

`O=C(O)c1cc2cc(Br)ccc2oc1=O` [Compound IIId, 6-bromocoumarin-3-carboxylic acid] was tested, and the IC50 [1] was 400 µM, the IC50 [2] was 600 µM and the IC50 [3] was 500 µM. For the same compound, the IC50 [4] was 700 µM, the IC50 ([5]; Homo sapiens, U-937, 72 h after treatment) was 500 µM and the IC50 [6] was 600 µM. It also gave an IC50 [7] of 500 µM, an IC50 [8] of 500 µM and an IC50 [9] of 500 µM. For the same compound, the IC50 [10] was 500 µM, the IC50 [11] was 600 µM and the IC50 (mouse melanoma cells B16) was 600 µM. It also gave an IC50 [12] of 400 µM and an IC50 [13] of 700 ± 50 µM.
For `COc1cccc2c1C(=O)c1c(O)c3c(c(O)c1C2=O)C[C@@](O)(C(C)=O)C[C@@H]3O[C@H]1C[C@H](N)[C@H](O)[C@H](C)O1` [Daunorubicin, reference compound], the IC50 [4] was 63 µM, the IC50 [8] was 55 µM and the IC50 [9] was 51 µM. For the same compound, the IC50 [10] was 63 µM, the IC50 [14] was 1 µM and the IC50 [12] was 58 µM. The IC50 [13] was 68 µM.
For `O=c1c(-c2ccc(O)cc2)coc2cc(O)cc(O)c12` [Genistein, reference compound], the IC50 [13] was 135 µM.
`COc1cc([C@@H]2c3cc4c(cc3[C@@H](O[C@@H]3O[C@@H]5CO[C@@H](C)O[C@H]5[C@H](O)[C@H]3O)[C@H]3COC(=O)[C@H]23)OCO4)cc(OC)c1O` [Etoposide, reference compound] showed an IC50 [11] of 85 µM and an IC50 [15] of 89 µM.
`N.N.O=C([O-])C1(C(=O)[O-])CCC1.[Pt+2]` [Carboplatin, reference compound] showed an IC50 ([5]; 72 h after treatment) of 58 ± 30 µM.
